Results as given in ChEMBL document CHEMBL1833824, “Effects of cyclization on stability, structure, and activity of α-conotoxin RgIA at the α9α10 nicotinic acetylcholine receptor and GABA(B) receptor” (J Med Chem, 2011).
Bridge positions count the residues as written; N and C are the ends. Peptide text beside a SMILES is read from it.

What was measured:
[1] = Inhibition of GABA-B receptor-mediated high voltage-activated Ca2+ channel current in Wistar rat DRG neurons by whole-cell patch clamp assay; details: DRG neuron
[2] = Inhibition of human alpha-9/rat alpha-10 nAChR expressed in Xenopus oocytes assessed as inhibition of acetylcholine-induced current by voltage clamp assay; type: cell-based; details: Oocyte
[3] = test system: Oocyte; assay: Inhibition of human alpha-9/rat alpha-10 nACHR expressed in Xenopus oocytes assessed as inhibition of acetylcholine-induced current at 50 nM by voltage clamp assay; type: cell-based
[4] = Metabolic stability in human AB positive serum assessed as compound degradation at 20 uM at 5 hrs; type: ADME, cell-free; details: read-out: Drug metabolism
[5] = test system: Oocyte; assay: Inhibition of human alpha-9/rat alpha-10 nACHR expressed in Xenopus oocytes assessed as inhibition of acetylcholine-induced current by voltage clamp assay relative to RgIA; type: cell-based; details: dose or concentration not given here

Compound	IC50 [1]	IC50 [2]	inhibition [3]	metabolised at 5 h, 20 µM [4]	inhibition [5]
N=C(N)NCCC[C@H](NC(=O)[C@@H]1CSSC[C@@H]2NC(=O)[C@@H](NC(=O)CN)CSSC[C@H](NC(=O)[C@H](CCCNC(=N)N)NC(=O)[C@@H]3CCCN3C(=O)[C@H](CC(=O)O)NC(=O)[C@H](CO)NC2=O)C(=O)N[C@@H](CCCNC(=N)N)C(=O)N[C@@H](Cc2ccc(O)cc2)C(=O)N[C@@H](CCCNC(=N)N)C(=O)N1)C(=O)O	0.0407 µM	0.04 µM	60%	–	–
N=C(N)NCCC[C@@H]1NC(=O)[C@H](Cc2ccc(O)cc2)NC(=O)[C@H](CCCNC(=N)N)NC(=O)[C@@H]2CSSC[C@H](NC(=O)CN)C(=O)N[C@@H](CSSC[C@@H](C(=O)O)NC1=O)C(=O)N[C@@H](CO)C(=O)N[C@@H](CC(=O)O)C(=O)N1CCC[C@H]1C(=O)N[C@@H](CCCNC(=N)N)C(=O)N2 (H-GCCSDPRCRYRC-OH; disulfide 2-8, 3-12)	0.0044 µM	0.034 µM	55%	92%	–
C[C@H](NC(=O)[C@H](C)NC(=O)CNC(=O)[C@@H]1CSSC[C@H](NC(=O)CN)C(=O)N[C@H]2CSSC[C@H](NC(=O)[C@H](CCCNC(=N)N)NC(=O)[C@@H]3CCCN3C(=O)[C@H](CC(=O)O)NC(=O)[C@H](CO)NC2=O)C(=O)N[C@@H](CCCNC(=N)N)C(=O)N[C@@H](Cc2ccc(O)cc2)C(=O)N[C@@H](CCCNC(=N)N)C(=O)N1)C(=O)O (H-GCCSDPRCRYRCGAA-OH; disulfide 2-12, 3-8)	0.0825 µM	–	–	–	8%
C[C@H](NC(=O)CNC(=O)[C@@H]1CSSC[C@H](NC(=O)CN)C(=O)N[C@H]2CSSC[C@H](NC(=O)[C@H](CCCNC(=N)N)NC(=O)[C@@H]3CCCN3C(=O)[C@H](CC(=O)O)NC(=O)[C@H](CO)NC2=O)C(=O)N[C@@H](CCCNC(=N)N)C(=O)N[C@@H](Cc2ccc(O)cc2)C(=O)N[C@@H](CCCNC(=N)N)C(=O)N1)C(=O)N[C@@H](C)C(=O)NCC(=O)O (H-GCCSDPRCRYRCGAAG-OH; disulfide 2-12, 3-8)	0.0701 µM	–	–	–	12%
C[C@H](NC(=O)CNC(=O)[C@@H]1CSSC[C@H](NC(=O)CN)C(=O)N[C@H]2CSSC[C@H](NC(=O)[C@H](CCCNC(=N)N)NC(=O)[C@@H]3CCCN3C(=O)[C@H](CC(=O)O)NC(=O)[C@H](CO)NC2=O)C(=O)N[C@@H](CCCNC(=N)N)C(=O)N[C@@H](Cc2ccc(O)cc2)C(=O)N[C@@H](CCCNC(=N)N)C(=O)N1)C(=O)N[C@@H](C)C(=O)NCC(=O)NCC(=O)O (H-GCCSDPRCRYRCGAAGG-OH; disulfide 2-12, 3-8)	0.0115 µM	–	–	–	25%
C[C@H](NC(=O)CNC(=O)[C@H](C)NC(=O)[C@H](C)NC(=O)CNC(=O)CNC(=O)[C@@H]1CSSC[C@H](NC(=O)CN)C(=O)N[C@H]2CSSC[C@H](NC(=O)[C@H](CCCNC(=N)N)NC(=O)[C@@H]3CCCN3C(=O)[C@H](CC(=O)O)NC(=O)[C@H](CO)NC2=O)C(=O)N[C@@H](CCCNC(=N)N)C(=O)N[C@@H](Cc2ccc(O)cc2)C(=O)N[C@@H](CCCNC(=N)N)C(=O)N1)C(=O)NCC(=O)O (H-GCCSDPRCRYRCGGAAGAG-OH; disulfide 2-12, 3-8)	0.0363 µM	0.019 µM	60%	54%	–
C[C@H](NC(=O)CNC(=O)CNC(=O)[C@@H]1CSSC[C@H](NC(=O)CN)C(=O)N[C@H]2CSSC[C@H](NC(=O)[C@H](CCCNC(=N)N)NC(=O)[C@@H]3CCCN3C(=O)[C@H](CC(=O)O)NC(=O)[C@H](CO)NC2=O)C(=O)N[C@@H](CCCNC(=N)N)C(=O)N[C@@H](Cc2ccc(O)cc2)C(=O)N[C@@H](CCCNC(=N)N)C(=O)N1)C(=O)N[C@@H](C)C(=O)NCC(=O)NCC(=O)O (H-GCCSDPRCRYRCGGAAGG-OH; disulfide 2-12, 3-8)	0.0043 µM	> 0.05 µM	–	43%	39%
